Results on 32 molecules are retold here after patent US20260125400A1, “TYK2 DEGRADERS AND USES THEREOF” (Kymera Therapeutics, Inc., priority 2023, published 2026).

Where only a bound is given, the exact number is not on record here.

In this assay the target is T1, TYK2 (Homo sapiens, UniProt P29597).
T1 construct: Degradation of TYK2 in cells was quantitatively measured using Meso Scale Discovery (MSD) technology; endogenous in cells; host or cells: OCI-LY10
As to the kind of experiment: TYK2 MSD degradation in OCI-LY10 cells. The note with it: OCI-LY10 cells, 4 to 24 hours incubation; for DC50: read-out: TYK2 MSD OCI-LY10 Rel-DC50. In kind it is cell-based. In short, it runs like this:
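OCI-LY10 cells were treated with 9-dose 1:3 series (top 1 to 10 μM final) for 4 to 24 hours at 37° C. Lysate TYK2 quantified by MSD sandwich immunoassay; DC50 and Dmax from four-parameter inhibitor vs. response fit.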

T1 sequence (P29597 whole entry): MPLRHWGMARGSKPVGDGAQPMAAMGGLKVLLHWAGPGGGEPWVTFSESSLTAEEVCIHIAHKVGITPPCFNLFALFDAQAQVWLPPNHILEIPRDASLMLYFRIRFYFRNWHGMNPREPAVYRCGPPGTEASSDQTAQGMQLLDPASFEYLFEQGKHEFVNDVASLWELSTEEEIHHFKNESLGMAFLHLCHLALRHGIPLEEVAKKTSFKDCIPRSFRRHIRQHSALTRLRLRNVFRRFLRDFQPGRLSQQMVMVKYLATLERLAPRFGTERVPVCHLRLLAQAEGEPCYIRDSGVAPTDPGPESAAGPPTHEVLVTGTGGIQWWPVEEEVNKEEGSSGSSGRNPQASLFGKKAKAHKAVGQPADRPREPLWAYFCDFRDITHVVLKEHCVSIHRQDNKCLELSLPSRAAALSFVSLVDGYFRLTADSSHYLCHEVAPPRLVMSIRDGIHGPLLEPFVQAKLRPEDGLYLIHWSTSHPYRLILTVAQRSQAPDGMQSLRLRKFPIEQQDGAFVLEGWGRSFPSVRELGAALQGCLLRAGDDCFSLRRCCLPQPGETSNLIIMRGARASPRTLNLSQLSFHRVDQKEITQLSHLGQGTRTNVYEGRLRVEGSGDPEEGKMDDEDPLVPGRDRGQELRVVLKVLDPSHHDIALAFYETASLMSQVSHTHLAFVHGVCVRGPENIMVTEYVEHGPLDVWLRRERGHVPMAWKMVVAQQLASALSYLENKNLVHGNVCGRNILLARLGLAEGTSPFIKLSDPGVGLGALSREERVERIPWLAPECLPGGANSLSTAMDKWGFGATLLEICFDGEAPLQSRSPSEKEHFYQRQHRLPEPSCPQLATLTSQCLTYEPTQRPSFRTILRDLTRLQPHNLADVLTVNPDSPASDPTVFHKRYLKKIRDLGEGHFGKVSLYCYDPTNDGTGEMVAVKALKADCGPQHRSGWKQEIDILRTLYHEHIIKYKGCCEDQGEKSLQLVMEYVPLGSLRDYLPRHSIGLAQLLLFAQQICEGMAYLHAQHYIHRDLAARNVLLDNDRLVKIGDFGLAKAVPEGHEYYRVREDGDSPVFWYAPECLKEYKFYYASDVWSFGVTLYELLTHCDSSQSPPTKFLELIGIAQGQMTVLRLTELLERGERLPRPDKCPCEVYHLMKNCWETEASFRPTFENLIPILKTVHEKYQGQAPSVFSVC

Regarding `CNc1cc(N2CCc3c(-c4cc(CN5CCN(CCc6ccc(Cl)c(C7CCC(=O)NC7=O)c6)CC5)ccn4)cccc32)nn2c(C(=O)NC3CC3F)cnc12` (stereo not shown) [I-395], the “TYK2 MSD OCI-LY10 Dmax %” value is listed as “D (D (<50%))” and the half-maximal degradation concentration (DC50) is over 100 nM.

Consider `CNc1cc(N2CCc3c(CN4CCC(N5CCN(Cc6ccc(Cl)c(C7CCC(=O)NC7=O)c6)CC5)C(F)(F)C4)cccc32)nn2c(C(=O)NC3CC3F)cnc12` (stereo not shown) [I-421], for which the “TYK2 MSD OCI-LY10 Dmax %” value was “D (D (<50%))” and the 50% degradation concentration (DC50) was over 100 nM.

`CNc1cc(N2CCc3c(-c4ccc(OCC5CCN(Cc6ccc(Cl)c(C7CCC(=O)NC7=O)c6)CC5)cn4)cccc32)nn2c(C(=O)N[C@@H]3C[C@@H]3F)cnc12` (stereo partly shown) [I-425]: the “TYK2 MSD OCI-LY10 Dmax %” value is “D (D (<50%))” and the DC50 is over 100 nM.

For the molecule `CNc1cc(N2CCc3c2cccc3C23CC(CN4CCC(N5CC(N6CCN(c7cccc8c7n(C)c(=O)n8C7CCC(=O)NC7=O)CC6)C5)C(F)(F)C4)(C2)C3)nn2c(C(=O)N[C@@H]3C[C@@H]3F)cnc12` (stereo partly shown) [I-429], the “TYK2 MSD OCI-LY10 Dmax %” value is “B (B (90 to >75%))” and the DC50 is under 10 nM.

Turning to `CNc1cc(N2CCc3c(-c4ccc(CN5CC6(CCN(Cc7ccc(OC)c(C8CCC(=O)NC8=O)c7)CC6(F)F)C5)cn4)cccc32)nn2c(C(=O)N[C@@H]3C[C@@H]3F)cnc12` (stereo partly shown) [I-431], the “TYK2 MSD OCI-LY10 Dmax %” value was “B (B (90 to >75%))” and the DC50 was under 10 nM.

`CNc1cc(N2CCc3c(-c4ccc(CN5CC6(CCN(Cc7cc(N8CCC(=O)NC8=O)c(Cl)cc7C)CC6(F)F)C5)cn4)cccc32)nn2c(C(=O)N[C@@H]3C[C@@H]3F)cnc12` [I-456]: the “TYK2 MSD OCI-LY10 Dmax %” value is recorded as “D (D (<50%))” and the DC50 is over 100 nM.

With `CNc1cc(N2CCc3c(-c4ccc(CN5CC6(CCN(Cc7c(C)ccc(N8CCC(=O)NC8=O)c7C)CC6(F)F)C5)cn4)cccc32)nn2c(C(=O)N[C@@H]3C[C@@H]3F)cnc12` [I-458], the “TYK2 MSD OCI-LY10 Dmax %” value is “D (D (<50%))” and the 50% degradation concentration (DC50) is under 10 nM.

With `CNc1cc(N2CCc3c(-c4ccc(CN5CCC6(CC5)CC(COc5ccc(C7CCC(=O)NC7=O)c(Cl)c5)C6)cn4)cccc32)nn2c(C(=O)N[C@@H]3C[C@@H]3F)cnc12` (stereo partly shown) [I-460], the “TYK2 MSD OCI-LY10 Dmax %” value was “D (D (<50%))” and the DC50 was over 100 nM.

Take `CNc1cc(N2CCc3c(-c4ccc(CN5CCC6(CC5)CC(COc5ccc(Cl)c(C7CCC(=O)NC7=O)c5)C6)cn4)cccc32)nn2c(C(=O)N[C@@H]3C[C@@H]3F)cnc12` (stereo partly shown) [I-461]: the “TYK2 MSD OCI-LY10 Dmax %” value is recorded as “D (D (<50%))” and the DC50 was under 10 nM.

`CNc1cc(N2CCc3c(-c4ccc(CN5CC6(CCC(COc7ccc(Cl)c(C8CCC(=O)NC8=O)c7)CC6)C5)cn4)cccc32)nn2c(C(=O)N[C@@H]3C[C@@H]3F)cnc12` (stereo partly shown) [I-462]: the “TYK2 MSD OCI-LY10 Dmax %” value is on record as “D (D (<50%))” and the DC50 lay in the range of 10 to 100 nM.

For `CNc1cc(N2CCc3c(-c4ccc(CN5CC6(CCC(COc7ccc(C8CCC(=O)NC8=O)c(Cl)c7)CC6)C5)cn4)cccc32)nn2c(C(=O)N[C@@H]3C[C@@H]3F)cnc12` (stereo partly shown) [I-463], the “TYK2 MSD OCI-LY10 Dmax %” value is listed as “D (D (<50%))” and the DC50 was over 100 nM.

As to `CNc1cc(N2CCc3c(-c4cnc(CN5CC6(CCN(C(=O)c7ccc(Cl)c(N8CCC(=O)NC8=O)c7)CC6)C5)nc4)cccc32)nn2c(C(=O)N[C@@H]3C[C@@H]3F)cnc12` [I-465], the “TYK2 MSD OCI-LY10 Dmax %” value is reported as “B (B (90 to >75%))” and the DC50 was under 10 nM.

Turning to `CNc1cc(N2CCc3c(-c4cnc(CN5CC6(CCN(C(=O)c7ccc(Cl)c(N8CCC(=O)NC8=O)c7)CC6)C5)cn4)cccc32)nn2c(C(=O)N[C@@H]3C[C@@H]3F)cnc12` [I-466], the “TYK2 MSD OCI-LY10 Dmax %” value is on record as “A (A (>90%))” and the 50% degradation concentration (DC50) is under 1 nM.

`CNc1cc(N2CCc3c(C#CCN4CCC(N5CCC(C6CCN(c7ccc8c(c7)n(C)c(=O)n8C7CCC(=O)NC7=O)CC6)CC5)C(F)(F)C4)cccc32)nn2c(C(=O)N[C@@H]3C[C@@H]3F)cnc12` (stereo partly shown) [I-467]: the “TYK2 MSD OCI-LY10 Dmax %” value is “B (B (90 to >75%))” and the 50% degradation concentration (DC50) was under 10 nM.

In the case of `CNc1cc(N2CCc3c(CN4CCC(N5CC(CN6CCN(c7ccc8c(c7)n(C)c(=O)n8C7CCC(=O)NC7=O)CC6)C5)C(F)(F)C4)cccc32)nn2c(C(=O)N[C@@H]3C[C@@H]3F)cnc12` (stereo partly shown) [I-468], the “TYK2 MSD OCI-LY10 Dmax %” value is “B (B (90 to >75%))” and the half-maximal degradation concentration (DC50) was under 1 nM.

In the case of `CNc1cc(N2CCc3c(-c4ccc(CN5CCC(N6CCC(CC#Cc7ccc8c(c7)n(C)c(=O)n8C7CCC(=O)NC7=O)CC6)C(F)(F)C5)cn4)cccc32)nn2c(C(=O)N[C@@H]3C[C@@H]3F)cnc12` (stereo partly shown) [I-469], the “TYK2 MSD OCI-LY10 Dmax %” value is given as “B (B (90 to >75%))” and the DC50 was under 10 nM.

As for `CNc1cc(N2CCc3c(-c4ccc(CN5CCC(N6CC(N7CCN(c8ccc9c(c8F)n(C)c(=O)n9C8CCC(=O)NC8=O)CC7)C6)C(F)(F)C5)cn4)cccc32)nn2c(C(=O)N[C@@H]3C[C@@H]3F)cnc12` (stereo partly shown) [I-470], the “TYK2 MSD OCI-LY10 Dmax %” value is “B (B (90 to >75%))” and the DC50 is under 1 nM.

`CNc1cc(N2CCc3c(CN4CCC(N5CC(N6CCN(c7cccc8c7n(C)c(=O)n8C7CCC(=O)NC7=O)CC6)C5)C(F)(F)C4)cccc32)nn2c(C(=O)N[C@@H]3C[C@@H]3F)cnc12` (stereo partly shown) [I-471]: the “TYK2 MSD OCI-LY10 Dmax %” value was “B (B (90 to >75%))” and the DC50 is under 1 nM.

For the molecule `CNc1cc(N2CCc3c(C#CCN4CCC(N5CCC6(CCN(c7ccc8c(c7)n(C)c(=O)n8C7CCC(=O)NC7=O)CC6)CC5)C(F)(F)C4)cccc32)nn2c(C(=O)N[C@@H]3C[C@@H]3F)cnc12` (stereo partly drawn) [I-486, 6-(4-(3-(4-(9-(1-(2,6-Dioxopiperidin-3-yl)-3-methyl-2-oxo-2,3-dihydro-LH-benzo[d]imidazol-5-yl)-3,9-diazaspiro[5.5]undecan-3-yl)-3,3-difluoropiperidin-1-yl)prop-1-yn-1-yl)indolin-1-yl)-N-((1R,2S)-2-fluorocyclopropyl)-8-(methylamino)imidazo[1,2-b]pyridazine-3-carboxamide], the Dmax was in the range of 75 to 90% and the DC50 is under 10 nM.

Regarding `CNc1cc(N2CCc3c(CN4CCC(N5CCC(CC#Cc6cccc7c6n(C)c(=O)n7C6CCC(=O)NC6=O)CC5)C(F)(F)C4)cccc32)nn2c(C(=O)NC3CC3F)cnc12` (stereo not shown) [I-488], the “TYK2 MSD OCI-LY10 Dmax %” value is reported as “D (D (<50%))” and the DC50 fell in the range of 10 to 100 nM.

For `CNc1cc(N2CCc3c(-c4ccc(CN5CC6(CCN(C(=O)c7ccc(Cl)c(C8CCC(=O)NC8=O)c7)CC6(F)F)C5)cn4)cccc32)nn2c(C(=O)N[C@@H]3C[C@@H]3F)cnc12` (stereo partly shown) [I-502], the “TYK2 MSD OCI-LY10 Dmax %” value is “A (A (>90%))” and the 50% degradation concentration (DC50) was under 1 nM.

As to `CNc1cc(N2CCc3c(N4CCC(CN5CCC6(CC5)CCN(c5ccc(Cl)c(C7CCC(=O)NC7=O)c5)CC6)CC4)cccc32)nn2c(C(=O)N[C@@H]3C[C@@H]3F)cnc12` (stereo partly shown) [I-513], the “TYK2 MSD OCI-LY10 Dmax %” value was “D (D (<50%))” and the half-maximal degradation concentration (DC50) was in the range of 10 to 100 nM.

On to `CNc1cc(N2CCc3c(-c4ccc(OCCC5CCN(C(=O)c6ccc(Cl)c(N7CCC(=O)NC7=O)c6)CC5)cn4)cccc32)nn2c(C(=O)N[C@@H]3C[C@@H]3F)cnc12` [I-617], for which the “TYK2 MSD OCI-LY10 Dmax %” value was “C (C (75 to 50%))” and the DC50 is under 10 nM.

Consider `CNc1cc(N2CCc3c(-c4ccc(CN5CC6(CCN(C(=O)c7cc(Cl)c(C)c(N8CCC(=O)NC8=O)c7)CC6(F)F)C5)cn4)cccc32)nn2c(C(=O)N[C@@H]3C[C@@H]3F)cnc12` [I-634], for which the “TYK2 MSD OCI-LY10 Dmax %” value is given as “A (A (>90%))” and the 50% degradation concentration (DC50) is under 1 nM.

As to `CNc1cc(N2CCc3c(-c4ccc(CN5CC6(CCN(C(=O)c7ccc(Cl)c(N8CCC(=O)NC8=O)c7)CC6(F)F)C5)cn4)cccc32)nn2c(C(=O)NC3CC(F)(F)C3)cnc12` [I-653], the “TYK2 MSD OCI-LY10 Dmax %” value was “B (B (90 to >75%))” and the half-maximal degradation concentration (DC50) was under 10 nM.

Consider `CNc1cc(N2CCc3c(-c4ccc(CC5CCC6(CC5)CCN(C(=O)c5ccc(Cl)c(N7CCC(=O)NC7=O)c5)CC6)cn4)cccc32)nn2c(C(=O)N[C@@H]3C[C@@H]3F)cnc12` [I-654], for which the “TYK2 MSD OCI-LY10 Dmax %” value is recorded as “B (B (90 to >75%))” and the DC50 was under 10 nM.

`CNc1cc(N2CCc3c(-c4ccc(CN5CCC6(CCN(C(=O)c7cc(C)c(Cl)c(N8CCC(=O)NC8=O)c7)CC6)C(F)(F)C5)cn4)cccc32)nn2c(C(=O)N[C@@H]3C[C@@H]3F)cnc12` [I-655]: the “TYK2 MSD OCI-LY10 Dmax %” value is on record as “B (B (90 to >75%))” and the 50% degradation concentration (DC50) is under 10 nM.

With `CNc1cc(N2CCc3c(-c4ccc(CN5CCC6(CCN(C(=O)c7cc(F)c(Cl)c(N8CCC(=O)NC8=O)c7)CC6)C(F)(F)C5)cn4)cccc32)nn2c(C(=O)N[C@@H]3C[C@@H]3F)cnc12` [I-656], the “TYK2 MSD OCI-LY10 Dmax %” value is reported as “B (B (90 to >75%))” and the DC50 is under 1 nM.

In the case of `CNc1cc(N2CCc3c(-c4ccc(CN5CCC6(CCN(C(=O)c7cc(F)c(C)c(N8CCC(=O)NC8=O)c7)CC6)C(F)(F)C5)cn4)cccc32)nn2c(C(=O)N[C@@H]3C[C@@H]3F)cnc12` [I-657], the “TYK2 MSD OCI-LY10 Dmax %” value is “A (A (>90%))” and the DC50 was under 1 nM.

Consider `CNc1cc(N2CCc3c(CC4CCN(C5CCC6(CCN(C(=O)c7ccc(Cl)c(N8CCC(=O)NC8=O)c7)CC6)OC5)CC4)cccc32)nn2c(C(=O)N[C@@H]3C[C@@H]3F)cnc12` (stereo partly shown) [I-685], for which the “TYK2 MSD OCI-LY10 Dmax %” value is listed as “C (C (75 to 50%))” and the DC50 was under 10 nM.

For `CNc1cc(N2CCc3c(CC4CCN(C5CCC6(CC5)CCN(C(=O)c5ccc(Cl)c(N7CCC(=O)NC7=O)c5)CC6)CC4(F)F)cccc32)nn2c(C(=O)N[C@@H]3C[C@@H]3F)cnc12` (stereo partly shown) [I-686], the “TYK2 MSD OCI-LY10 Dmax %” value is “B (B (90 to >75%))” and the half-maximal degradation concentration (DC50) was under 10 nM.

With `CNc1cc(N2CCc3c(CCN4CCC(N5CCC6(CCN(C(=O)c7ccc(Cl)c(N8CCC(=O)NC8=O)c7)CC6)CC5)C(F)(F)C4)cccc32)nn2c(C(=O)NC3CC3F)cnc12` (stereo not shown) [I-687], the “TYK2 MSD OCI-LY10 Dmax %” value is “B (B (90 to >75%))” and the DC50 is under 1 nM.

For orientation: DC50 means the concentration at which degradation of the target reaches its halfway point. In general, Dmax refers to the largest share of the target that was removed. High values mean a fuller loss of target, low ones a partial loss of target.
